From patent US4845221A, “Serotonergic substituted piperazinyl tetralins” (American Home Products Corporation, priority 1988, dated 1989)
Entries after “also recorded” stand apart in the source; their conditions may differ.

What was measured:
[1] = system: 5-HT1A serotonin receptor; conditions: cited from earlier work
[2] = system: 5-HT1A (a serotonin receptor subtype); conditions: Middlemiss et al., European J. of Pharmacol. 90 151 (1983); cited from earlier work
[3] = target: T1, 5-HT-1A serotonin receptor (Rattus norvegicus, UniProt P19327); test: displacement of [3H]8-OH DPAT from the 5-HT-1A serotonin receptor; format: binding; conditions: for inhibition at 1 µM / Ki: [3H]8-OH DPAT; for inhibition at 1 µM: read-out: % Inhibition 1 μm 5 HT1A; for Ki: in parentheses after % inhibition, read-out: Ki 5 HT1A; for selectivity / separation of 5-HT1A vs D-2 binding (in words): 5-HT1A relative to D-2
T1 construct: 44: 1685-1696, 1985; from tissue
T1 sequence (P19327 1-422): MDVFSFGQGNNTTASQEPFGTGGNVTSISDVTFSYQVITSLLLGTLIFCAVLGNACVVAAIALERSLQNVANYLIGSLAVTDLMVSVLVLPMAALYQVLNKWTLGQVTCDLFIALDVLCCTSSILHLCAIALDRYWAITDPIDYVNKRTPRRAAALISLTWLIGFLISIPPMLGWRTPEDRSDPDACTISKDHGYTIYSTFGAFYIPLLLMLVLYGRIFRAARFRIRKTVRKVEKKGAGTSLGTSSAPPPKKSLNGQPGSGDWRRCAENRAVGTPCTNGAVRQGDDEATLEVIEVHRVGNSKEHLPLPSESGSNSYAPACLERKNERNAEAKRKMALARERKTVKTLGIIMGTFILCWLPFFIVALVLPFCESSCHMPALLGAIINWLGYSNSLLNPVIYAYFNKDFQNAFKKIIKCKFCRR
Excerpt: The serotonergic properties of the compounds of this invention were established by standard pharmacologically accepted procedures involving the measurement of the compound's ability to displace [^3 H]8-OH DPAT (dipropylaminotetralin) from the 5-HT-1A serotonin receptor by the procedure of Hall et al., J. Neurochem. 44: 1685-1696, 1985.

D-2 dopamine receptor = test: inhibition of 3H-spiroperidol binding, homogenized limbic brain tissue (D-2 dopamine receptor affinity); conditions: for % Inhibition 1 μM D-2: 3H-spiroperidol, limbic brain tissue
Experimental: The relatively low D-2 dopamine receptor affinity of the compounds of this invention was established by a modification of the procedure of Fields et al., Brain Res., 136, pp. 578-584 (1977) and Yamamura et al., eds. Neurotransmitter Receptor Binding, Raven Press, N.Y. (1978), wherein homogenized limbic brain tissue is incubated with ^3 H-spiroperidol and various concentrations of test compound, filtered, washed and shaken with Hydrofluor scintillation cocktail (National Diagnostics) and counted in a Packard 460 CD scintillation counter.

Which “5-HT1A receptor affinity of known agents (in words)” value (“5-HT1A receptor affinity” below) [1] does the source give for `CCCN(CCC)C1CCc2cccc(O)c2C1` (stereo not shown) [8-OH DPAT, 8-hydroxy-2-(di-n-propylamino)-tetralin] here?
The value was “selective 5-HT1A serotonin receptor affinity”.

What about the “5-HT1A agonist activity (in words)” value [2] of the same compound?
The value was “selective 5-HT1A (a serotonin receptor subtype) agonist activity”.

Which results are given for `Oc1cccc2c1CC(N1CCN(c3cccc(C(F)(F)F)c3)CC1)CC2` (stereo not shown) [Compound 2, 1-(1,2,3,4-tetrahydro-8-hydroxy-2-naphthalenyl)-4-[3-(trifluromethyl)phenyl]piperazine]?
inhibition at 1 µM [3]: 100%; Ki [3]: 14 nM; % Inhibition 1 μM D-2 (D-2 dopamine receptor): 46%

Which “5-HT1A receptor affinity” value [1] does the source give for `CC1(C)CC(=O)N(CCCCN2CCN(c3ncccn3)CC2)C(=O)C1` [gepirone] here?
Its value is “selective 5-HT1A serotonin receptor affinity”.

What does the source list for `COc1cccc2c1CC(N1CCN(c3ncccn3)CC1)CC2` (stereo not shown) [Compound 3, 2-[4-(1,2,3,4-tetrahydro-8-methoxy-2-naphthalenyl)-1-piperazinyl]pyrimidine]?
inhibition at 1 µM [3]: 84.6%; Ki [3]: 63 nM; % Inhibition 1 μM D-2 (D-2 dopamine receptor): 3%

Which results are given for `Oc1ccc2c(c1)CCC(N1CCN(c3cccc(C(F)(F)F)c3)CC1)C2` (stereo not shown) [Compound 10]?
inhibition at 1 µM [3]: 87%; D-2 dopamine receptor binding/affinity (in words) (D-2 dopamine receptor): which property was retained; % Inhibition 1 μM D-2 (D-2 dopamine receptor): 72%

For `COc1ccc2c(c1)CC(N1CCN(c3ccccc3OC)CC1)CC2` (stereo not shown) [Compound 7], which inhibition at 1 µM [3] is on record?
Its inhibition at 1 µM is 93%.

What about the “D-2 dopamine receptor binding/affinity (in words)” value (D-2 dopamine receptor) of the same compound?
Its value is “higher D-2 binding”.

And the “% Inhibition 1 μM D-2” value (D-2 dopamine receptor)?
The value was 65%.

Which results are given for `Oc1cccc2c1CC(N1CCN(c3ncccn3)CC1)CC2` (stereo not shown) [Compound 4, 2-[4-(1,2,3,4-tetrahydro-8-hydroxy-2-naphthalenyl)-1-piperazinyl]pyrimidine]?
inhibition at 1 µM [3]: 91%; selectivity / separation of 5-HT1A vs D-2 binding (in words) [3]: most selective serotonin receptor binding; Ki [3]: 109 nM; % Inhibition 1 μM D-2 (D-2 dopamine receptor): 0%

Which inhibition at 1 µM [3] does the source give for `COc1ccc2c(c1)CCC(N1CCN(c3cccc(C(F)(F)F)c3)CC1)C2` (stereo not shown) [Compound 9] here?
Its inhibition at 1 µM is 97%.

And the “D-2 dopamine receptor binding/affinity (in words)” value (D-2 dopamine receptor)?
The value was “increased D- 2 binding markedly”.

What about the “% Inhibition 1 μM D-2” value (D-2 dopamine receptor) of the same compound?
The value was 65%.

With `COc1ccc2c(c1)CCC(N1CCN(c3ncccn3)CC1)C2` (stereo not shown) [Compound 11] as the compound, how does the “5-HT1A binding/affinity (in words)” value [3] read?
The value was “marked reduction in 5-HT1A binding”.

What about the inhibition at 1 µM [3] of the same compound?
Its inhibition at 1 µM is 44%.

For `COc1ccc2c(c1)CC(N1CCN(c3ncccn3)CC1)CC2` (stereo not shown) [Compound 8], which inhibition at 1 µM [3] is on record?
Its inhibition at 1 µM is 83%.

And the “selectivity / separation of 5-HT1A vs D-2 binding (in words)” value [3]?
The value was “improved separation of properties with emphasis on 5-HT1A binding”.

And the “% Inhibition 1 μM D-2” value (D-2 dopamine receptor)?
Its value is 11%.

With `O=C1CC2(CCCC2)CC(=O)N1CCCCN1CCN(c2ncccn2)CC1` [buspirone] as the compound, how does the “5-HT1A receptor affinity” value [1] read?
The value was “potent affinity; also recorded: selective 5-HT1A serotonin receptor affinity”.

Which “5-HT1A binding/affinity (in words)” value [3] does the source give for `Oc1ccc2c(c1)CCC(N1CCN(c3ncccn3)CC1)C2` (stereo not shown) [Compound 12] here?
Its value is “negligible activity”.

What about the inhibition at 1 µM [3] of the same compound?
The inhibition at 1 µM was 15%.

What about the “D-2 dopamine receptor binding/affinity (in words)” value (D-2 dopamine receptor) of the same compound?
Its value is “negligible D-2 binding”.

And the “% Inhibition 1 μM D-2” value (D-2 dopamine receptor)?
The value was 7%.

Which “5-HT1A receptor affinity” value [1] does the source give for `O=C1c2ccccc2S(=O)(=O)N1CCCCN1CCN(c2ncccn2)CC1` [ipsapirone] here?
Its value is “selective 5-HT1A serotonin receptor affinity”.

For `COc1cccc2c1CC(N1CCN(c3cccc(C(F)(F)F)c3)CC1)CC2` (stereo not shown) [Compound 1, 1-(1,2,3,4-tetrahydro-8-methoxy-2-naphthalenyl)-4-[3-(trifluoromethyl)phenyl]piperazine], which inhibition at 1 µM [3] is on record?
The inhibition at 1 µM was 97%.

And the Ki [3]?
The Ki was 11 nM.

And the “% Inhibition 1 μM D-2” value (D-2 dopamine receptor)?
Its value is 5%.

What does the source list for `COc1ccccc1N1CCN(C2CCc3cccc(OC)c3C2)CC1` (stereo not shown) [Compound 5]?
5-HT1A binding/affinity (in words) [3]: almost complete loss of serotonin receptor agonism; inhibition at 1 µM [3]: 4%; selectivity / separation of 5-HT1A vs D-2 binding (in words) [3]: reverses the selective activity; D-2 dopamine receptor binding/affinity (in words) (D-2 dopamine receptor): relatively high dopamine receptor binding; % Inhibition 1 μM D-2 (D-2 dopamine receptor): 72%

With `COc1ccc2c(c1)CC(N1CCN(c3cccc(C(F)(F)F)c3)CC1)CC2` (stereo not shown) [Compound 6] as the compound, how does the “5-HT1A binding/affinity (in words)” value [3] read?
The value was “reduced 5-HT1A agonism”.

What about the inhibition at 1 µM [3] of the same compound?
Its inhibition at 1 µM is 77%.

And the “selectivity / separation of 5-HT1A vs D-2 binding (in words)” value [3]?
The value was “unacceptable separation of properties”.

What about the “D-2 dopamine receptor binding/affinity (in words)” value (D-2 dopamine receptor) of the same compound?
The value was “relative high dopamine receptor binding”.

What about the “% Inhibition 1 μM D-2” value (D-2 dopamine receptor) of the same compound?
The value was 49%.
